Strand notation (5' to 3'): a small letter for the sugar, then the base; units joined by * are phosphorothioate-linked, units joined directly phosphodiester-linked; [ ] holds rarer units or linkages, { } end groups; capitals alone tell only the bases. [cMOE-R-N] = 6-(R)-CH2-O-CH3 BNA nucleoside (4'-CH(CH2OCH3)-O-2' bridge, R configuration) (N: the base); [6'R-Me-BNA] = 6-(R)-CH3 bicyclic nucleoside (R-constrained ethyl); [5'S-Me-BNA] = 5'-(S)-CH3 4'-CH2-O-2' bicyclic nucleoside; [6'S-cMOE] = 6-(S)-CH2-O-CH3 bicyclic nucleoside; e = 2'-O-(2-methoxyethyl) (MOE); l = locked nucleic acid (LNA); k = constrained ethyl (cEt); v = modified nucleoside v; [5mC] = 5-methylcytosine; d = 2'-deoxy (DNA)
What was measured:
PTEN [1] = experiment: 5′-vinyl and LNA gapped oligomers targeted to PTEN (Example 51), in vivo single injection, liver mRNA; conditions: 64 hrs; for PTEN % UTC: 18 mers, liver mRNA; for ED50: PTEN liver mRNA
RNA complement = experiment: Tm by melting against RNA complement (Example 51); conditions: 18 mers, melting against the RNA 20 mer (131566), 14 base complementary region
PTEN [2] = experiment: 2-14-2 gapped oligomers targeted to PTEN (Example 42), in vivo single injection, liver mRNA; conditions: for % UTC: liver mRNA, 72 hrs
PTEN [3] = experiment: 2-14-2 gapped oligomers targeted to PTEN (Example 50), in vivo single injection, liver mRNA; conditions: 72 hrs
[4] = injected once 60 mg/kg (last dose column)
[5] = injected once, second dose column, printed 60 mg/kg

Substance | % UTC (PTEN [2]; injected once 2 μmol/kg) [%] | % UTC (PTEN [2]; injected once 10 μmol/kg) [%] | % UTC (PTEN [3]; injected once 2 μmol/kg) [%] | % UTC (PTEN [3]; injected once 10 μmol/kg) [%] | other results
ISIS NO. 394425: MeClTlGCTAGCCTCTGGATTlTl; 4′-CH2-O-2′ BNA 2-14-2 gapped oligomer targeted to PTEN (CTGCTAGCCTCTGGATTT; sugars from the 5' end l2 d14 l2, [5mC] at 1, backbone not given here) [reference compound] | 11 | 2.1 | – | – | PTEN % UTC (PTEN [1]; injected once 1.9 mg/kg): 100%; PTEN % UTC (PTEN [1]; injected once 19 mg/kg): 8%; PTEN % UTC (PTEN [1]; [4]): 4%; PTEN % UTC (PTEN [1]; [5]): 35%; ED50 (PTEN [1]; injected once): 4.4 mg/kg; Tm (RNA complement): 61.6 °C
ISIS NO. 400522: CRURGCTAGCCTCTGGATURUR; 6-(R)-CH3 BNA 2-14-2 gapped oligomer targeted to PTEN (CUGCTAGCCTCTGGATUU; sugars from the 5' end [6'R-Me-BNA]2 d14 [6'R-Me-BNA]2, backbone and methylation of C not given here) | – | – | 18 | 4 | –
ISIS NO. 400523: CSUSGCTAGCCTCTGGATUSUS; 6-(S)-CH3 BNA 2-14-2 gapped oligomer targeted to PTEN (CUGCTAGCCTCTGGATUU; sugars from the 5' end k2 d14 k2, backbone and methylation of C not given here) | – | – | 17 | 4 | –
ISIS NO. 400524: CRURGCTAGCCTCTGGATURUR; 6-(R)-CH2-O-CH3 BNA 2-14-2 gapped oligomer targeted to PTEN ([cMOE-R-C]*[cMOE-R-U]*dG*dC*dT*dA*dG*dC*dC*dT*dC*dT*dG*dG*dA*dT*[cMOE-R-U]*[cMOE-R-U]; antisense) | – | – | 23 | 4 | –
ISIS NO. 411027: CvUvGCTAGCCTCTGGATUvUv; 18 mer gapped oligomer targeted to PTEN, subscript v nucleoside illustrated in a drawing (CUGCTAGCCTCTGGATUU; sugars from the 5' end v2 d14 v2, backbone and methylation of C not given here; further chemistry not fully specified) | – | – | – | – | PTEN % UTC (PTEN [1]; injected once 1.9 mg/kg): 89%; PTEN % UTC (PTEN [1]; injected once 19 mg/kg): 24%; PTEN % UTC (PTEN [1]; [4]): 7%; PTEN % UTC (PTEN [1]; [5]): 61%; ED50 (PTEN [1]; injected once): 7.4 mg/kg; Tm (RNA complement): 59.9 °C
ISIS NO. 400521: CSUSGCTAGCCTCTGGATUSUS; 5′-(S)-CH3 BNA 2-14-2 gapped oligomer targeted to PTEN (CUGCTAGCCTCTGGATUU; sugars from the 5' end [5'S-Me-BNA]2 d14 [5'S-Me-BNA]2, backbone and methylation of C not given here) | 21.4 | 3.8 | – | – | efficacy, comparison in words (PTEN [2]; high dose group (10 micromole/Kg)): essentially equally efficacious as 394425
ISIS NO. 400525: CSUSGCTAGCCTCTGGATUSUS; 6-(S)-CH2-O-CH3 BNA 2-14-2 gapped oligomer targeted to PTEN (CUGCTAGCCTCTGGATUU; sugars from the 5' end [6'S-cMOE]2 d14 [6'S-cMOE]2, backbone and methylation of C not given here) | – | – | 21 | 3 | –
ISIS NO. 394420: MeCeTeGCTAGCCTCTGGATTeTe; 2′-O-MOE 2-14-2 gapped oligomer targeted to PTEN (CTGCTAGCCTCTGGATTT; sugars from the 5' end e2 d14 e2, [5mC] at 1, backbone not given here) [reference compound] | 79 | 26 | 79 | 26 | –

— patent publication US8088746B2, “Bis-modified bicyclic nucleic acid analogs” (Isis Pharmaceuticals, Inc., priority 2006, dated 2012)
